Columns and labels:
[1] = system: cellular prion protein (PrPC); format: cell-based, human; conditions: healthy and CKD patient MSCs treated with melatonin; ELISA; FIGS. 4B, 4C
miR-4516 = assay: miRNA / miR-4516 expression by RNA microarray and qPCR in MSCs and exosomes; format: cell-based, human; conditions: healthy MSCs and CKD-MSCs treated with melatonin; qPCR; FIG. 4F

COc1ccc2[nH]cc(CCNC(C)=O)c2c1 [melatonin]
expression of prion proteins present in the exosomes extracted from stem cells [1]: increases
expression level of miR-4516 in stem cells (miR-4516): increase
